# Data as given in patent US6706663B2, “Herbicidal 3-heterocyclic substituted benzisothiazole and benzisoxazole compounds” (Wyeth, priority 2000, dated 2004).
# Assays:
# [1] = system: ABUTH (Abutilon theophrasti); experiment: Preemergence herbicidal evaluation; type: in vivo, Medic.; settings: preemergence, rated 4-5 weeks after treatment
# [2] = system: IPOHE (Ipomoea hederacea); experiment: Preemergence herbicidal evaluation; type: in vivo, (L.) Jacq.; settings: preemergence, rated 4-5 weeks after treatment
# SETVI (Setaria viridis) = experiment: Preemergence herbicidal evaluation; type: in vivo, (L.) Beau; settings: preemergence, rated 4-5 weeks after treatment
# Outline: (§1)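 Seeds planted in potting soil cups and sprayed preemergence with aqueous acetone compound solution. Greenhouse-grown; rated 4–5 weeks after treatment on a 0-9 visual scale (stand, vigor, malformation, size, chlorosis, appearance) versus control.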
# [3] = system: ECHCG (Echinochloa crus-galli); experiment: Preemergence herbicidal evaluation; type: in vivo, (L.) Beau; settings: preemergence, rated 4-5 weeks after treatment
# Outline: as §1
# [4] = system: TRZAWR (Wheat, Winter, cv Riband); experiment: Preemergence herbicidal evaluation; type: in vivo, Triticum aestivum; settings: preemergence, rated 4-5 weeks after treatment
# Outline: as §1
# ORYSAT (Rice, Tebonnet) [5] = experiment: Postemergence herbicidal evaluation; type: in vivo, Oryza sativa, (L.) Tebonnet
# Outline: (§2)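 Seedlings grown about two weeks in flats, sprayed, then kept under standard greenhouse care. Rated visually 4–5 weeks after treatment on a 0–9 scale (stand, vigour, malformation, size, chlorosis, overall appearance) relative to untreated control; repeat tests averaged.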
# CYPIR (Cyperus iria) = experiment: Flooded paddy, preemergence weed control; type: in vivo; settings: rated 3-4 weeks after treatment, 0-9 rating scale
# Outline: (§3)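 Under paddy conditions, seeds or vegetative propagules go into the top 0.5 cm of silt loam; the soil is then flooded to 1.5–3 cm and kept so. Treated pots stay in a greenhouse; response is rated 0-9 visually versus control.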
# [6] = system: AMBEL (Ambrosia artemisifolia); experiment: Postemergence herbicidal evaluation; type: in vivo, L.
# Outline: as §2
# [7] = system: CHEAL (Chenopodium album); experiment: Postemergence herbicidal evaluation; type: in vivo, L.
# Outline: as §2
# [8] = system: CASOB (Cassia obtusifolia); experiment: Postemergence herbicidal evaluation; type: in vivo, L.
# Outline: as §2
# [9] = system: GLXMAW (Soybean, Williams); experiment: Preemergence herbicidal evaluation; type: in vivo, Glycine max, (L.) Merr. cv Williams; settings: preemergence, rated 4-5 weeks after treatment
# [10] = system: MOOVA (Monochoria vaginalis); experiment: Flooded paddy, preemergence weed control; type: in vivo, Presl.; settings: rated 3-4 weeks after treatment, 0-9 rating scale
# Outline: as §3
# [11] = system: IPOHE (Ipomoea hederacea); experiment: Postemergence herbicidal evaluation; type: in vivo, (L.) Jacq.
# Outline: as §2
# [12] = system: ABUTH (Abutilon theophrasti); experiment: Postemergence herbicidal evaluation; type: in vivo, Medic.
# Outline: as §2
# ORYSAT (Rice, Tebonnet) [13] = experiment: Flooded paddy, post-transplant rice tolerance; type: in vivo, Oryza sativa, (L.) Tebonnet; settings: flooded paddy, post-transplant rice, rated 3-4 weeks after treatment, 0-9 rating scale
# Outline: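 Two ten-day-old Tebonnet rice seedlings transplanted into silt loam, then flooded with water held at 1.5–3 cm above soil; herbicide applied post-transplant. Plants kept in greenhouse and rated visually 0–9 versus untreated control for stand, vigor, malformation, size and chlorosis.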
# ZEAMX (Corn, Field) = experiment: Preemergence herbicidal evaluation; type: in vivo, Zea mays, L.; settings: preemergence, rated 4-5 weeks after treatment
# [14] = system: GLXMAW (Soybean, Williams); experiment: Postemergence herbicidal evaluation; type: in vivo, Glycine max, (L.) Merr. cv Williams
# Outline: as §2
# [15] = system: AMBEL (Ambrosia artemisifolia); experiment: Preemergence herbicidal evaluation; type: in vivo, L.; settings: preemergence, rated 4-5 weeks after treatment
# Outline: as §1
# [16] = system: CHEAL (Chenopodium album); experiment: Preemergence herbicidal evaluation; type: in vivo, L.; settings: preemergence, rated 4-5 weeks after treatment
# Outline: as §1
# [17] = system: CASOB (Cassia obtusifolia); experiment: Preemergence herbicidal evaluation; type: in vivo, L.; settings: preemergence, rated 4-5 weeks after treatment
# Outline: as §1
structure (smiles),measurement,setting,value
"Cn1c(C(F)(F)F)cc(=O)n(-c2ccc3snc(-c4ccccn4)c3c2)c1=O [Compound 9, 1-methyl-3-[3-(2-pyridyl)-1,2-benzisothiazol-5-yl]-6-(trifluoromethyl)uracil]",ABUTH preemergence herbicidal rating,[1]; Rate 0.0620 kg/ha,9.0
same,ABUTH preemergence herbicidal rating,[1]; Rate 0.1250 kg/ha,9.0
same,ABUTH preemergence herbicidal rating,[1]; Rate 0.2500 kg/ha,9.0
same,IPOHE preemergence herbicidal rating,[2]; Rate 0.0620 kg/ha,6.3
same,IPOHE preemergence herbicidal rating,[2]; Rate 0.1250 kg/ha,8.3
same,IPOHE preemergence herbicidal rating,[2]; Rate 0.2500 kg/ha,9.0
same,SETVI preemergence herbicidal rating,SETVI (Setaria viridis); Rate 0.0620 kg/ha,9.0
same,SETVI preemergence herbicidal rating,SETVI (Setaria viridis); Rate 0.1250 kg/ha,9.0
same,SETVI preemergence herbicidal rating,SETVI (Setaria viridis); Rate 0.2500 kg/ha,9.0
same,ECHCG preemergence herbicidal rating,[3]; Rate 0.0620 kg/ha,8.3
same,ECHCG preemergence herbicidal rating,[3]; Rate 0.1250 kg/ha,9.0
same,ECHCG preemergence herbicidal rating,[3]; Rate 0.2500 kg/ha,9.0
same,TRZAWR preemergence herbicidal rating,[4]; Rate 0.0620 kg/ha,5.5
same,TRZAWR preemergence herbicidal rating,[4]; Rate 0.1250 kg/ha,7.5
same,TRZAWR preemergence herbicidal rating,[4]; Rate 0.2500 kg/ha,8.5
same,"Postemergence herbicidal rating, ORYSAT","ORYSAT (Rice, Tebonnet) [5]; rate 0.0320 kg/ha",3.8
same,"Postemergence herbicidal rating, ORYSAT","ORYSAT (Rice, Tebonnet) [5]; rate 0.0620 kg/ha",4.3
same,"Postemergence herbicidal rating, ORYSAT","ORYSAT (Rice, Tebonnet) [5]; rate 0.1250 kg/ha",3.0
same,"herbicidal rating, CYPIR",CYPIR (Cyperus iria); rate 0.0080 kg/ha,8.0
same,"herbicidal rating, CYPIR",CYPIR (Cyperus iria); rate 0.0320 kg/ha,7.0
same,"herbicidal rating, CYPIR",CYPIR (Cyperus iria); rate 0.1250 kg/ha,9.0
same,"Postemergence herbicidal rating, AMBEL",[6]; rate 0.0320 kg/ha,9.0
same,"Postemergence herbicidal rating, AMBEL",[6]; rate 0.0620 kg/ha,9.0
same,"Postemergence herbicidal rating, AMBEL",[6]; rate 0.1250 kg/ha,9.0
same,"Postemergence herbicidal rating, CHEAL",[7]; rate 0.0320 kg/ha,9.0
same,"Postemergence herbicidal rating, CHEAL",[7]; rate 0.0620 kg/ha,9.0
same,"Postemergence herbicidal rating, CHEAL",[7]; rate 0.1250 kg/ha,9.0
same,"Postemergence herbicidal rating, CASOB",[8]; rate 0.0320 kg/ha,6.5
same,"Postemergence herbicidal rating, CASOB",[8]; rate 0.0620 kg/ha,8.0
same,"Postemergence herbicidal rating, CASOB",[8]; rate 0.1250 kg/ha,9.0
same,GLXMAW preemergence herbicidal rating,[9]; Rate 0.0620 kg/ha,4.0
same,GLXMAW preemergence herbicidal rating,[9]; Rate 0.1250 kg/ha,8.3
same,GLXMAW preemergence herbicidal rating,[9]; Rate 0.2500 kg/ha,8.7
same,"herbicidal rating, MOOVA",[10]; rate 0.0080 kg/ha,8.0
same,"herbicidal rating, MOOVA",[10]; rate 0.0320 kg/ha,9.0
same,"herbicidal rating, MOOVA",[10]; rate 0.1250 kg/ha,9.0
same,"Postemergence herbicidal rating, IPOHE",[11]; rate 0.0320 kg/ha,9.0
same,"Postemergence herbicidal rating, IPOHE",[11]; rate 0.0620 kg/ha,9.0
same,"Postemergence herbicidal rating, IPOHE",[11]; rate 0.1250 kg/ha,9.0
same,"Postemergence herbicidal rating, ABUTH",[12]; rate 0.0320 kg/ha,9.0
same,"Postemergence herbicidal rating, ABUTH",[12]; rate 0.0620 kg/ha,9.0
same,"Postemergence herbicidal rating, ABUTH",[12]; rate 0.1250 kg/ha,9.0
same,"herbicidal rating, ORYSAT (rice tolerance)","ORYSAT (Rice, Tebonnet) [13]; rate 0.0080 kg/ha",4.0
same,"herbicidal rating, ORYSAT (rice tolerance)","ORYSAT (Rice, Tebonnet) [13]; rate 0.0320 kg/ha",3.0
same,"herbicidal rating, ORYSAT (rice tolerance)","ORYSAT (Rice, Tebonnet) [13]; rate 0.1250 kg/ha",6.0
same,ZEAMX preemergence herbicidal rating,"ZEAMX (Corn, Field); Rate 0.0620 kg/ha",6.3
same,ZEAMX preemergence herbicidal rating,"ZEAMX (Corn, Field); Rate 0.1250 kg/ha",6.7
same,ZEAMX preemergence herbicidal rating,"ZEAMX (Corn, Field); Rate 0.2500 kg/ha",7.7
same,"Postemergence herbicidal rating, GLXMAW",[14]; rate 0.0320 kg/ha,8.3
same,"Postemergence herbicidal rating, GLXMAW",[14]; rate 0.0620 kg/ha,8.3
same,"Postemergence herbicidal rating, GLXMAW",[14]; rate 0.1250 kg/ha,9.0
same,AMBEL preemergence herbicidal rating,[15]; Rate 0.0620 kg/ha,6.3
same,AMBEL preemergence herbicidal rating,[15]; Rate 0.1250 kg/ha,9.0
same,AMBEL preemergence herbicidal rating,[15]; Rate 0.2500 kg/ha,9.0
same,CHEAL preemergence herbicidal rating,[16]; Rate 0.0620 kg/ha,9.0
same,CHEAL preemergence herbicidal rating,[16]; Rate 0.1250 kg/ha,9.0
same,CHEAL preemergence herbicidal rating,[16]; Rate 0.2500 kg/ha,9.0
same,CASOB preemergence herbicidal rating,[17]; Rate 0.0620 kg/ha,1.0
same,CASOB preemergence herbicidal rating,[17]; Rate 0.1250 kg/ha,2.7
same,CASOB preemergence herbicidal rating,[17]; Rate 0.2500 kg/ha,6.3
"Cn1c(C(F)(F)F)cc(=O)n(-c2ccc3snc(-c4ncccn4)c3c2)c1=O [Compound 12, 1-methyl-3-[3-(2-pyrimidinyl)-1,2-benzisothiazol-5-yl]-6-(trifluoromethyl)uracil]",ABUTH preemergence herbicidal rating,[1]; Rate 0.2500 kg/ha,9.0
same,IPOHE preemergence herbicidal rating,[2]; Rate 0.2500 kg/ha,9.0
same,SETVI preemergence herbicidal rating,SETVI (Setaria viridis); Rate 0.2500 kg/ha,9.0
same,ECHCG preemergence herbicidal rating,[3]; Rate 0.2500 kg/ha,9.0
same,TRZAWR preemergence herbicidal rating,[4]; Rate 0.2500 kg/ha,9.0
same,"Postemergence herbicidal rating, ORYSAT","ORYSAT (Rice, Tebonnet) [5]; rate 0.0620 kg/ha",6.0
same,"herbicidal rating, CYPIR",CYPIR (Cyperus iria); rate 0.1250 kg/ha,9.0
same,"Postemergence herbicidal rating, AMBEL",[6]; rate 0.0620 kg/ha,9.0
same,"Postemergence herbicidal rating, CHEAL",[7]; rate 0.0620 kg/ha,9.0
same,"Postemergence herbicidal rating, CASOB",[8]; rate 0.0620 kg/ha,9.0
same,GLXMAW preemergence herbicidal rating,[9]; Rate 0.2500 kg/ha,9.0
same,"herbicidal rating, MOOVA",[10]; rate 0.1250 kg/ha,9.0
same,"Postemergence herbicidal rating, IPOHE",[11]; rate 0.0620 kg/ha,9.0
same,"Postemergence herbicidal rating, ABUTH",[12]; rate 0.0620 kg/ha,9.0
same,"herbicidal rating, ORYSAT (rice tolerance)","ORYSAT (Rice, Tebonnet) [13]; rate 0.1250 kg/ha",7.0
same,ZEAMX preemergence herbicidal rating,"ZEAMX (Corn, Field); Rate 0.2500 kg/ha",8.5
same,"Postemergence herbicidal rating, GLXMAW",[14]; rate 0.0620 kg/ha,8.5
same,AMBEL preemergence herbicidal rating,[15]; Rate 0.2500 kg/ha,9.0
same,CHEAL preemergence herbicidal rating,[16]; Rate 0.2500 kg/ha,9.0
same,CASOB preemergence herbicidal rating,[17]; Rate 0.2500 kg/ha,8.5
